# Measured values from US6525001B1, “Substituted pyrimidine and pyridine herbicides” (Mid-American Commercialization Corporation, priority 1997, dated 2003).
# Key:
# Type in all cases: in vivo
# Design in all cases: key: 0 is no effect; 10 is complete control
# [1] = test system: bedstraw (Galium aparine); assay: Test B pre-/postemergence; conditions: for Bedstraw plant response rating: Preemergence
# In short: (§1)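 Seeds were planted and sprayed preemergence, while plants at 2 to 18 cm (1- to 4-leaf stage) were sprayed postemergence at the same time, with test chemical in a non-phytotoxic solvent mixture containing surfactant. After twelve to sixteen days in a greenhouse, injury was rated visually against untreated controls on a 0–10 scale.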
# [2] = test system: blackgrass (Alopecurus myosuroides); assay: Test B pre-/postemergence; conditions: for Blackgrass plant response rating: Preemergence
# In short: as §1
# [3] = test system: broadleaf signalgrass (Brachiaria decumbens); assay: Test B pre-/postemergence; conditions: for B. signalgrass plant response rating: Preemergence
# In short: as §1
# [4] = test system: cocklebur (Xanthium strumarium); assay: Test B pre-/postemergence; conditions: for Plant response rating, Cocklebur: Postemergence; for Cocklebur plant response rating: Preemergence
# In short: as §1
# [5] = test system: corn (Zea mays); assay: Test B pre-/postemergence; conditions: for Corn plant response rating: Preemergence
# In short: as §1
# [6] = test system: crabgrass (Digitaria sanguinalis); assay: Test B pre-/postemergence; conditions: for Crabgrass plant response rating: Preemergence
# In short: as §1
# [7] = test system: giant foxtail (Setaria faberii); assay: Test B pre-/postemergence
# In short: as §1
# [8] = test system: momingglory (Ipomoea hederacea); assay: Test B pre-/postemergence
# In short: as §1
# [9] = test system: pigweed (Amaranthus retroflexus); assay: Test B pre-/postemergence
# In short: as §1
# [10] = test system: purple nutsedge (Cyperus rotundus); assay: Test B pre-/postemergence
# In short: as §1
# [11] = test system: rape (Brassica napus); assay: Test B pre-/postemergence
# In short: as §1
# [12] = test system: soybean (Glycine max); assay: Test B pre-/postemergence
# In short: as §1
# [13] = test system: sugar beet (Beta vulgaris); assay: Test B pre-/postemergence
# In short: as §1
# [14] = test system: velvetleaf (Abutilon theophrasti); assay: Test B pre-/postemergence
# In short: as §1
# [15] = test system: wheat (Triticum aestivum); assay: Test B pre-/postemergence
# In short: as §1
# [16] = test system: wild oat (Avena fatua); assay: Test B pre-/postemergence
# In short: as §1
# [17] = test system: bamyardgrass (Echinochloa crus-galli); assay: Test B flood test
# In short: (§2)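 Plants were grown to the 2-leaf stage before treatment with test chemical, then held in a greenhouse for twelve to sixteen days. Injury was visually rated against untreated controls on a 0–10 scale, where 0 is no effect and 10 is complete control.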
# [18] = test system: duck salad (Heteranthera limosa); assay: Test B flood test
# In short: as §2
# [19] = test system: rice (Oryza sativa); assay: Test B flood test
# In short: as §2
# [20] = test system: smallflower flatsedge (Cyperus difformis); assay: Test B flood test
# In short: as §2
# [21] = Rate 250 g/ha, Postemergence (so in the source)
# [22] = Rate 62 g/ha, Postemergence (flood test)
# [23] = Rate 125 g/ha, Postemergence, flood test
# [24] = Rate 250 g/ha, Postemergence (flood test species)
# [25] = Rate 125 g/ha, Postemergence section (flood test species)
smiles,measurement,setting,value
Cc1cnc(-c2ccc(Cl)c(Cl)c2)nc1Cc1cccc(C#N)c1 [Compound 38],"Plant response rating, Bedstraw","[1]; Rate 62 g/ha, Postemergence",7
same,Bedstraw plant response rating,[1]; Rate 62 g/ha,0
same,"Plant response rating, Bedstraw","[1]; Rate 125 g/ha, Postemergence",7
same,Bedstraw plant response rating,[1]; Rate 125 g/ha,1
same,"Plant response rating, Bedstraw",[1]; [21],2
same,"Plant response rating, Blackgrass","[2]; Rate 62 g/ha, Postemergence",0
same,Blackgrass plant response rating,[2]; Rate 62 g/ha,0
same,"Plant response rating, Blackgrass","[2]; Rate 125 g/ha, Postemergence",0
same,Blackgrass plant response rating,[2]; Rate 125 g/ha,0
same,"Plant response rating, Blackgrass","[2]; Rate 250 g/ha, Postemergence",0
same,"Plant response rating, Blackgrass",[2]; [21],0
same,"Plant response rating, B. signalgrass","[3]; Rate 62 g/ha, Postemergence",1
same,B. signalgrass plant response rating,[3]; Rate 62 g/ha,0
same,"Plant response rating, B. signalgrass","[3]; Rate 125 g/ha, Postemergence",1
same,B. signalgrass plant response rating,[3]; Rate 125 g/ha,0
same,"Plant response rating, B. signalgrass","[3]; Rate 250 g/ha, Postemergence",1
same,"Plant response rating, B. signalgrass","[3]; Rate 250 g/ha, Postemergence as printed in head r139 (second section for compounds 26-50)",1
same,"Plant response rating, Cocklebur",[4]; Rate 62 g/ha,4
same,Cocklebur plant response rating,[4]; Rate 62 g/ha,0
same,"Plant response rating, Cocklebur",[4]; Rate 125 g/ha,7
same,Cocklebur plant response rating,[4]; Rate 125 g/ha,0
same,"Plant response rating, Cocklebur",[4]; Rate 250 g/ha,8
same,"Plant response rating, Corn","[5]; Rate 62 g/ha, Postemergence",1
same,Corn plant response rating,[5]; Rate 62 g/ha,0
same,"Plant response rating, Corn","[5]; Rate 125 g/ha, Postemergence",1
same,Corn plant response rating,[5]; Rate 125 g/ha,0
same,"Plant response rating, Corn","[5]; Rate 250 g/ha, Postemergence",1
same,"Plant response rating, Corn",[5]; [21],0
same,"Plant response rating, Crabgrass","[6]; Rate 62 g/ha, Postemergence",0
same,Crabgrass plant response rating,[6]; Rate 62 g/ha,0
same,"Plant response rating, Crabgrass","[6]; Rate 125 g/ha, Postemergence",0
same,Crabgrass plant response rating,[6]; Rate 125 g/ha,0
same,"Plant response rating, Crabgrass","[6]; Rate 250 g/ha, Postemergence",1
same,"Plant response rating, Crabgrass",[6]; [21],0
same,"Plant response rating, Giant foxtail","[7]; Rate 62 g/ha, Postemergence",0
same,Giant foxtail plant response rating,"[7]; Rate 62 g/ha, Preemergence",0
same,Giant foxtail plant response rating,"[7]; Rate 125 g/ha, Postemergence",1
same,Giant foxtail plant response rating,"[7]; Rate 125 g/ha, Preemergence",1
same,"Plant response rating, Giant foxtail","[7]; Rate 250 g/ha, Postemergence",0
same,"Plant response rating, Giant foxtail",[7]; [21],1
same,"Plant response rating, Morningglory","[8]; Rate 62 g/ha, Postemergence",1
same,Morningglory plant response rating,"[8]; Rate 62 g/ha, Preemergence",0
same,Morningglory plant response rating,"[8]; Rate 125 g/ha, Postemergence",1
same,Morningglory plant response rating,"[8]; Rate 125 g/ha, Preemergence",0
same,"Plant response rating, Morningglory","[8]; Rate 250 g/ha, Postemergence",1
same,"Plant response rating, Morningglory",[8]; [21],0
same,"Plant response rating, Redroot pigweed","[9]; Rate 62 g/ha, Postemergence",2
same,Redroot pigweed plant response rating,"[9]; Rate 62 g/ha, Preemergence",0
same,Redroot pigweed plant response rating,"[9]; Rate 125 g/ha, Postemergence",4
same,Redroot pigweed plant response rating,"[9]; Rate 125 g/ha, Preemergence",0
same,"Plant response rating, Redroot pigweed","[9]; Rate 250 g/ha, Postemergence",5
same,"Plant response rating, Redroot pigweed",[9]; [21],0
same,"Plant response rating, Nutsedge","[10]; Rate 62 g/ha, Postemergence",0
same,Nutsedge plant response rating,"[10]; Rate 62 g/ha, Preemergence",0
same,Nutsedge plant response rating,"[10]; Rate 125 g/ha, Postemergence",0
same,Nutsedge plant response rating,"[10]; Rate 125 g/ha, Preemergence",0
same,"Plant response rating, Nutsedge","[10]; Rate 250 g/ha, Postemergence",0
same,"Plant response rating, Nutsedge",[10]; [21],0
same,"Plant response rating, Rape","[11]; Rate 62 g/ha, Postemergence",3
same,Rape plant response rating,"[11]; Rate 62 g/ha, Preemergence",0
same,Rape plant response rating,"[11]; Rate 125 g/ha, Postemergence",3
same,Rape plant response rating,"[11]; Rate 125 g/ha, Preemergence",0
same,"Plant response rating, Rape","[11]; Rate 250 g/ha, Postemergence",6
same,"Plant response rating, Rape",[11]; [21],0
same,"Plant response rating, Soybean","[12]; Rate 62 g/ha, Postemergence",1
same,Soybean plant response rating,"[12]; Rate 62 g/ha, Preemergence",0
same,Soybean plant response rating,"[12]; Rate 125 g/ha, Postemergence",1
same,"Plant response rating, Soybean","[12]; Rate 125 g/ha, Preemergence",0
same,"Plant response rating, Soybean","[12]; Rate 250 g/ha, Postemergence",1
same,"Plant response rating, Soybean",[12]; [21],0
same,"Plant response rating, Sugarbeets","[13]; Rate 62 g/ha, Postemergence",9
same,Sugarbeets plant response rating,"[13]; Rate 62 g/ha, Preemergence",0
same,Sugarbeets plant response rating,"[13]; Rate 125 g/ha, Postemergence",9
same,"Plant response rating, Sugarbeets","[13]; Rate 125 g/ha, Preemergence",0
same,"Plant response rating, Sugarbeets","[13]; Rate 250 g/ha, Postemergence",9
same,"Plant response rating, Sugarbeets",[13]; [21],0
same,"Plant response rating, Velvetleaf","[14]; Rate 62 g/ha, Postemergence",1
same,Velvetleaf plant response rating,"[14]; Rate 62 g/ha, Preemergence",0
same,Velvetleaf plant response rating,"[14]; Rate 125 g/ha, Postemergence",1
same,"Plant response rating, Velvetleaf","[14]; Rate 125 g/ha, Preemergence",0
same,"Plant response rating, Velvetleaf","[14]; Rate 250 g/ha, Postemergence",2
same,"Plant response rating, Velvetleaf",[14]; [21],0
same,Wheat plant response rating,"[15]; Rate 62 g/ha, Postemergence",1
same,Wheat plant response rating,"[15]; Rate 62 g/ha, Preemergence",0
same,Wheat plant response rating,"[15]; Rate 125 g/ha, Postemergence",1
same,"Plant response rating, Wheat","[15]; Rate 125 g/ha, Preemergence",0
same,"Plant response rating, Wheat","[15]; Rate 250 g/ha, Postemergence",1
same,"Plant response rating, Wheat",[15]; [21],0
same,Wild oats plant response rating,"[16]; Rate 62 g/ha, Postemergence",1
same,Wild oats plant response rating,"[16]; Rate 62 g/ha, Preemergence",0
same,Wild oats plant response rating,"[16]; Rate 125 g/ha, Postemergence",1
same,"Plant response rating, Wild oats","[16]; Rate 125 g/ha, Preemergence",0
same,"Plant response rating, Wild oats","[16]; Rate 250 g/ha, Postemergence",1
same,"Plant response rating, Wild oats",[16]; [21],0
same,"Plant response rating, Barnyardgrass",[17]; [22],0
same,"Plant response rating, Barnyardgrass",[17]; [23],0
same,"Plant response rating, Barnyardgrass",[17]; [24],0
same,"Plant response rating, Ducksalad",[18]; [22],0
same,"Plant response rating, Ducksalad",[18]; [23],0
same,"Plant response rating, Ducksalad",[18]; [24],0
same,"Plant response rating, Rice",[19]; [22],0
same,Rice plant response rating,[19]; [25],0
same,"Plant response rating, Rice",[19]; [24],0
same,"Plant response rating, S. Flatsedge",[20]; [22],0
same,S. Flatsedge plant response rating,[20]; [25],3
same,"Plant response rating, S. Flatsedge",[20]; [24],4
